Reference: US20070049564A1 (Wyeth, priority 2005, published 2007)
≈ marks a conversion by molar mass, not a printed value. Where two headings read alike, the source gives them in different places.

How the values were obtained:
E. coli = test: Range of MIC for E. coli strains; settings: Escherichia coli
E. coli GC 4559 = test: MIC, broth microdilution; settings: Escherichia coli, GC4559, E. coli GC 4559
S. aureus GC 6469 = test: MIC, broth microdilution; settings: Staphylococcus aureus, GC6469, S. aureus GC 6469
E. faecalis GC 2265 = test: MIC, broth microdilution; settings: Enterococcus faecalis, GC2265, E. faecalis GC 2265
S. pyogenes GC 4563 = test: MIC, broth microdilution; settings: Streptococcus pyogenes, GC4563, S. pyogenes GC 4563
S. agalactiae GC 4564 = test: MIC, broth microdilution; settings: Streptococcus agalactiae, GC4564, S. agalactiae GC 4564
S. aureus GC 2216 = test: MIC, broth microdilution; settings: Staphylococcus aureus, GC2216, S. aureus GC 2216
E. coli GC 3226 = test: MIC, broth microdilution; settings: Escherichia coli, GC3226, E. coli GC 3226
S. pneumoniae+ GC 4465 = test: MIC, broth microdilution; settings: Streptococcus pneumoniae, S. pneumoniae+ GC 4465
E. coli GC 2271 = test: MIC, broth microdilution; settings: Escherichia coli, GC2271, E. coli GC 2271
E. coli GC 1073 = test: MIC, broth microdilution; settings: Escherichia coli, GC1073, E. coli GC 1073
E. faecium GC 2243 = test: MIC, broth microdilution; settings: Enterococcus faecium, GC2243, E. faecium GC 2243
E. coli GC 2232 = test: MIC, broth microdilution; settings: Escherichia coli, GC2232, E. coli GC 2232
P. aeruginosa GC 2214 = test: MIC, broth microdilution; settings: Pseudomonas aeruginosa, GC2214, P. aeruginosa GC 2214
S. aureus GC 4536 = test: MIC, broth microdilution; settings: Staphylococcus aureus, GC4536, S. aureus GC 4536
c. albicans GC 3066 = test: MIC, broth microdilution
E. coli GC 2270 = test: MIC, broth microdilution; settings: Escherichia coli, GC2270, E. coli GC 2270
Staph. aureus Smith = test: In vivo activity (oral, iv; ED50) against Staph. aureus Smith in mice
Description: Representative examples of compounds of Formula I were tested for the oral efficacy using S. aureus Smith in mice.

E. faecalis GC 2242 = test: MIC, broth microdilution; settings: Enterococcus faecalis, GC2242, E. faecalis GC 2242
S. aureus GC 6335 = test: MIC, broth microdilution; settings: Staphylococcus aureus, GC6335, S. aureus GC 6335
Description: Antimicrobial susceptibility testing. The in vitro activities of the antibiotics are determined by the broth microdilution method as recommended by the National Committee for Clinical Laboratory Standards (NCCLS) (1). Mueller-Hinton II broth (MHBII)(BBL Cockeysville, Md.) is the medium employed in the testing procedures. Microtiter plates containing serial dilutions of each antimicrobial agent are inoculated with each organism to yield the appropriate density (10^5 CFU/ml) in a 100 μl final volume. The plates are incubated for 18-22 hours at 35° C. in ambient air.
Representative compounds were first incubated in mouse serum for an hour prior to the in vitro testing against a panel of selected gram-positive and gram-negative bacteria strains. All compounds were also pre-incubated in water for an hour prior to testing as control. Representative compounds of Formula I were incubated in human serum prior to MIC determination.

[1] = 20 h, read-out: Range of MIC, E. coli (Mouse Serum)
[2] = read-out: Range of MIC, E. coli (Water)
[3] = read-out: Range of MIC, E. coli (mouse serum)
[4] = read-out: Range of MIC, E. coli (water)
[5] = c. albicans GC 3066, Water pre-incubation
[6] = Staphylococcus aureus, in Mus musculus, po, read-out: ED50 Staph Smith SOD
[7] = iv, read-out: ED50 Staph Smith SIV

CCCN(CC(=O)Nc1cc(N(C)C)c2c(c1O)C(=O)C1=C(O)[C@]3(O)C(=O)C(C(N)=O)=C(O)[C@@H](N(C)C)[C@@H]3C[C@@H]1C2)C(=O)OCOC(=O)C(C)(C)C [Example 9, ({[(2-{[(5aR,6aS,7S,10aS)-9-(aminocarbonyl)-4,7-bis(dimethylamino)-1,8,10a,11-tetrahydroxy-10,12-dioxo-5,5a,6,6a,7,10,10a,12-octahydrotetracen-2-yl]amino}-2-oxoethyl)(propyl)amino]carbonyl}oxy)methyl pivalate]
MIC (E. coli; [1]): 0.5 to 2 µg/mL (≈ 0.685 to 2.74 µM)
MIC (E. coli; [2]): 4 to 64 µg/mL (≈ 5.48 to 87.7 µM)
MIC (E. coli; [3]): 0.5 to 2 µg/mL (≈ 0.685 to 2.74 µM)
MIC (E. coli; [4]): 4 to 64 µg/mL (≈ 5.48 to 87.7 µM)
MIC (E. coli GC 4559; Mouse Serum pre-incubation): 1 µg/mL (≈ 1.37 µM)
MIC (E. coli GC 4559; Water pre-incubation): 8 µg/mL (≈ 11 µM)
MIC (S. aureus GC 6469; Mouse Serum pre-incubation): 1 µg/mL (≈ 1.37 µM)
MIC (S. aureus GC 6469; Water pre-incubation): 2 µg/mL (≈ 2.74 µM)
MIC (E. faecalis GC 2265; Mouse Serum pre-incubation): 1 µg/mL (≈ 1.37 µM)
MIC (E. faecalis GC 2265; Water pre-incubation): 2 µg/mL (≈ 2.74 µM)
MIC (S. pyogenes GC 4563; Mouse Serum pre-incubation): < 0.06 µg/mL
MIC (S. pyogenes GC 4563; Water pre-incubation): < 0.06 µg/mL
MIC (S. agalactiae GC 4564; Mouse Serum pre-incubation): 0.12 µg/mL (≈ 0.164 µM)
MIC (S. agalactiae GC 4564; Water pre-incubation): 0.25 µg/mL (≈ 0.343 µM)
MIC (S. aureus GC 2216; Mouse Serum pre-incubation): 0.25 µg/mL (≈ 0.343 µM)
MIC (S. aureus GC 2216; Water pre-incubation): 0.5 µg/mL (≈ 0.685 µM)
MIC (E. coli GC 3226; Mouse Serum pre-incubation): 2 µg/mL (≈ 2.74 µM)
MIC (E. coli GC 3226; Water pre-incubation): 16 µg/mL (≈ 21.9 µM)
MIC (S. pneumoniae+ GC 4465; Mouse Serum pre-incubation): 2 µg/mL (≈ 2.74 µM)
MIC (S. pneumoniae+ GC 4465; Water pre-incubation): 2 µg/mL (≈ 2.74 µM)
MIC (E. coli GC 2271; Mouse Serum pre-incubation): 0.5 µg/mL (≈ 0.685 µM)
MIC (E. coli GC 2271; Water pre-incubation): 8 µg/mL (≈ 11 µM)
MIC (E. coli GC 1073; Mouse Serum pre-incubation): 1 µg/mL (≈ 1.37 µM)
MIC (E. coli GC 1073; Water pre-incubation): 8 µg/mL (≈ 11 µM)
MIC (E. faecium GC 2243; Mouse Serum pre-incubation): 0.25 µg/mL (≈ 0.343 µM)
MIC (E. faecium GC 2243; Water pre-incubation): 0.5 µg/mL (≈ 0.685 µM)
MIC (E. coli GC 2232; Mouse Serum pre-incubation): 1 µg/mL (≈ 1.37 µM)
MIC (E. coli GC 2232; Water pre-incubation): 8 µg/mL (≈ 11 µM)
MIC (P. aeruginosa GC 2214; Mouse Serum pre-incubation): 16 µg/mL (≈ 21.9 µM)
MIC (P. aeruginosa GC 2214; Water pre-incubation): > 64 µg/mL
MIC (S. aureus GC 4536; Mouse Serum pre-incubation): 0.5 µg/mL (≈ 0.685 µM)
MIC (S. aureus GC 4536; Water pre-incubation): 0.5 µg/mL (≈ 0.685 µM)
MIC (c. albicans GC 3066; Candida albicans, GC3066): > 64 µg/mL
MIC (c. albicans GC 3066; [5]): >64 UG/ML
MIC (E. coli GC 2270; Mouse Serum pre-incubation): 0.5 µg/mL (≈ 0.685 µM)
MIC (E. coli GC 2270; Water pre-incubation): 4 µg/mL (≈ 5.48 µM)
ED50 (Staph. aureus Smith; [6]): 11.3 mg/kg
ED50 (Staph. aureus Smith; [7]): 0.32 mg/kg
MIC (E. faecalis GC 2242; Mouse Serum pre-incubation): 0.5 µg/mL (≈ 0.685 µM)
MIC (E. faecalis GC 2242; Water pre-incubation): 1 µg/mL (≈ 1.37 µM)
MIC (S. aureus GC 6335; Mouse Serum pre-incubation): 0.25 µg/mL (≈ 0.343 µM)
MIC (S. aureus GC 6335; Water pre-incubation): 0.5 µg/mL (≈ 0.685 µM)

CCCN(CC(=O)Nc1cc(N(C)C)c2c(c1O)C(=O)C1=C(O)[C@]3(O)C(=O)C(C(N)=O)=C(O)[C@@H](N(C)C)[C@@H]3C[C@@H]1C2)C(=O)OCOC(=O)C(C)C [Example 10, ({[(2-{[(5aR,6aS,7S,10aS)-9-(aminocarbonyl)-4,7-bis(dimethylamino)-1,8,10a,11-tetrahydroxy-10,12-dioxo-5,5a,6,6a,7,10,10a,12-octahydrotetracen-2-yl]amino}-2-oxoethyl)(propyl)amino]carbonyl}oxy)methyl 2-methylpropanoate]
MIC (E. coli; [1]): 0.25 to 2 µg/mL (≈ 0.349 to 2.79 µM)
MIC (E. coli; [2]): 4 to 32 µg/mL (≈ 5.59 to 44.7 µM)
MIC (E. coli; [3]): 0.25 to 2 µg/mL (≈ 0.349 to 2.79 µM)
MIC (E. coli; [4]): 4 to 32 µg/mL (≈ 5.59 to 44.7 µM)
MIC (E. coli GC 4559; Mouse Serum pre-incubation): 0.5 µg/mL (≈ 0.699 µM)
MIC (E. coli GC 4559; Water pre-incubation): 16 µg/mL (≈ 22.4 µM)
MIC (S. aureus GC 6469; Mouse Serum pre-incubation): 1 µg/mL (≈ 1.4 µM)
MIC (S. aureus GC 6469; Water pre-incubation): 2 µg/mL (≈ 2.79 µM)
MIC (E. faecalis GC 2265; Mouse Serum pre-incubation): 1 µg/mL (≈ 1.4 µM)
MIC (E. faecalis GC 2265; Water pre-incubation): 1 µg/mL (≈ 1.4 µM)
MIC (S. pyogenes GC 4563; Mouse Serum pre-incubation): < 0.06 µg/mL
MIC (S. pyogenes GC 4563; Water pre-incubation): < 0.06 µg/mL
MIC (S. agalactiae GC 4564; Mouse Serum pre-incubation): < 0.06 µg/mL
MIC (S. agalactiae GC 4564; Water pre-incubation): 0.12 µg/mL (≈ 0.168 µM)
MIC (S. aureus GC 2216; Mouse Serum pre-incubation): 0.25 µg/mL (≈ 0.349 µM)
MIC (S. aureus GC 2216; Water pre-incubation): 0.5 µg/mL (≈ 0.699 µM)
MIC (E. coli GC 3226; Mouse Serum pre-incubation): 0.5 µg/mL (≈ 0.699 µM)
MIC (E. coli GC 3226; Water pre-incubation): 16 µg/mL (≈ 22.4 µM)
MIC (S. pneumoniae+ GC 4465; Mouse Serum pre-incubation): 1 µg/mL (≈ 1.4 µM)
MIC (S. pneumoniae+ GC 4465; Water pre-incubation): 1 µg/mL (≈ 1.4 µM)
MIC (E. coli GC 2271; Mouse Serum pre-incubation): 0.25 µg/mL (≈ 0.349 µM)
MIC (E. coli GC 2271; Water pre-incubation): 8 µg/mL (≈ 11.2 µM)
MIC (E. coli GC 1073; Mouse Serum pre-incubation): 0.5 µg/mL (≈ 0.699 µM)
MIC (E. coli GC 1073; Water pre-incubation): 16 µg/mL (≈ 22.4 µM)
MIC (E. faecium GC 2243; Mouse Serum pre-incubation): < 0.06 µg/mL
MIC (E. faecium GC 2243; Water pre-incubation): 0.12 µg/mL (≈ 0.168 µM)
MIC (E. coli GC 2232; Mouse Serum pre-incubation): 0.5 µg/mL (≈ 0.699 µM)
MIC (E. coli GC 2232; Water pre-incubation): 8 µg/mL (≈ 11.2 µM)
MIC (P. aeruginosa GC 2214; Mouse Serum pre-incubation): 16 µg/mL (≈ 22.4 µM)
MIC (P. aeruginosa GC 2214; Water pre-incubation): > 64 µg/mL
MIC (S. aureus GC 4536; Mouse Serum pre-incubation): 0.25 µg/mL (≈ 0.349 µM)
MIC (S. aureus GC 4536; Water pre-incubation): 0.5 µg/mL (≈ 0.699 µM)
MIC (c. albicans GC 3066; Candida albicans, GC3066): > 64 µg/mL
MIC (c. albicans GC 3066; [5]): >64 UG/ML
MIC (E. coli GC 2270; Mouse Serum pre-incubation): 0.5 µg/mL (≈ 0.699 µM)
MIC (E. coli GC 2270; Water pre-incubation): 8 µg/mL (≈ 11.2 µM)
ED50 (Staph. aureus Smith; [6]): 13.6 mg/kg
ED50 (Staph. aureus Smith; [7]): 0.36 mg/kg
MIC (E. faecalis GC 2242; Mouse Serum pre-incubation): 0.25 µg/mL (≈ 0.349 µM)
MIC (E. faecalis GC 2242; Water pre-incubation): 0.5 µg/mL (≈ 0.699 µM)
MIC (S. aureus GC 6335; Mouse Serum pre-incubation): 0.25 µg/mL (≈ 0.349 µM)
MIC (S. aureus GC 6335; Water pre-incubation): 0.5 µg/mL (≈ 0.699 µM)
